The values that follow come from patent US5189211A, “Sulfonamide derivatives” (Taisho Pharmaceutical Co., Ltd., priority 1990, dated 1993).

The subject of assay [1] is blood platelet aggregation. Nature of the assay: In vitro test in rabbit: inhibition of U-46619-induced blood platelet aggregation in platelet rich plasma (thromboxane A2 antagonism). In kind it is cell-based, male New Zealand strain house rabbits. Conditions: rabbit PRP, U-46619 final concentration 5 μM, 37° C., 3 minutes preincubation, measured for 5 minutes, read-out: IC50 (concentration of the test drug required to bring 50% inhibition to the maximum aggregation rate). Here is the method:
Experiment [In Vitro Test in Rabbit]
The remaining blood was centrifuged at 1500 g for 10 minutes to give platelet poor prasma (PPP). Platelet count of PRP was adjusted to 50-60×10^4 /μl by dilution of PRP by PPP.
Namely, a compound of Formula I as a test drug was dissolved in dimethyl sulfoxide and adjusted to the desired concentration with physiological saline solution.

For the next assay, the system named is thrombocytopenia. The experiment in a line: Test of acute thrombocytopenia in mice (U-46619-induced). The assay is classed as in vivo, male ICR mice. Conditions: administered peritoneally 30 seconds prior to U-46619 25 μg/kg caudal vein, platelet count 30 seconds after injection, class by dose giving more than 50% inhibition. Here is the method: Experiment 2 [Test of Acute Thrombocytopenia in Mice]
Male ICR mice weighting 25 g were used (7-11 animals for each group).
Thrombocytopenia was induced by injection of an aggregation-inducing substance (U-46619) having thromboxane A2 -like action in amount of 25 μg/kg from the caudal vein. At 30 seconds after injection of U-46619, 20 μl of the blood was collected from the femoral artery, and the platelet counts were immediately measured by means of an automatic blood cell counter (CC-180A, made by Toa Iyoudenshi Co.).
The compound of Formula I was suspended in 5% gum arabic solution and administered peritoneally to the test animals 30 seconds prior to injection of U-46619. As a comparative drug, BM was tested as above.
The inhibition ratio of the thrombocytopenia was calculated by the proportion of the decrease ratio of platelet count of the group treated with the test drug to that of the group with 5% gum arabic solution, and the activity was determined by the following criterion.
+: More than 50% inhibition at a dose of 1.0 mg/kg
++: More than 50% inhibition at a dose of 0.3 mg/kg
+++: More than 50% inhibition at a dose of 0.1 mg/kg

[2] abbreviates: Oryctolagus cuniculus, Platelet.

Read-outs that look alike come from different tables or passages of the source.

Regarding “4-[2-(4-Methylsulfonylamino)ethylthio]phenylacetic acid [Compound No. 94]”, in assay [1], the IC50 came out at 3100 nM.
Consider `O=C(O)COc1ccc(CCNS(=O)(=O)c2ccccc2)cc1` [BM, 4-[2-(phenylsulfonylamino)ethyl]phenoxyacetic acid, reference compound], for which, in assay [1] (setting [2]), the IC50 stood at 12000 nM. For the same compound, in the assay with thrombocytopenia, the “Activity (inhibition ratio of the thrombocytopenia)” value was “+ (More than 50% inhibition at a dose of 1.0 mg/kg)”.
As for `O=C(O)CCc1ccc(SCCNS(=O)(=O)c2ccc(Cl)cc2)cc1` [Compound No. 52, 3-{4-[2-(4-chlorophenylsulfonylamino)ethylthio]phenyl}propionic acid], the IC50 in assay [1] (setting [2]) was 1100 nM.
Take `Cc1ccc(S(=O)(=O)NCCSc2ccc(CCC(=O)O)cc2)cc1` [Compound No. 53, 3-{4-[2-(4-Methylphenylsulfonylamino)ethylthio]phenyl}propionic acid]: the IC50 in assay [1] (setting [2]) was 5800 nM.
As to `O=C(O)CCc1ccc(SCCNS(=O)(=O)c2ccc(F)cc2)cc1` [Compound No. 54, 3-{4-[2-(4-Fluorophenylsulfonylamino)ethylthio]phenyl}propionic acid], the IC50 in assay [1] (setting [2]) stood at 2400 nM.
Regarding `O=C(O)CCc1ccc(SCCNS(=O)(=O)c2ccc(Br)cc2)cc1` [Compound No. 55, 3-{4-[2-(4-Bromophenylsulfonylamino)ethylthio]phenyl}propionic acid], the IC50 in assay [1] (setting [2]) was found to be 1700 nM.
Regarding `CCOC(=O)COc1ccc(CSCCNS(=O)(=O)c2ccc(Cl)cc2)cc1` [Compound No. 63, Ethyl 4-[2-(4-chlorophenylsulfonylamino)ethylthiomethyl]phenoxyacetate], the IC50 in assay [1] (setting [2]) stood at 7300 nM.
Consider `O=C(O)COc1c(F)cc(SCCNS(=O)(=O)c2ccccc2)cc1F` [Compound No. 67, 2,6-difluoro-4-[2-(phenylsulfonylamino)ethylthio]phenoxyacetic acid], for which, in assay [1] (setting [2]), the IC50 was found to be 1800 nM. Moreover, the “Activity (inhibition ratio of the thrombocytopenia)” value in the assay on thrombocytopenia is listed as “+ (More than 50% inhibition at a dose of 1.0 mg/kg)”.
As to `O=C(O)COc1c(F)cc(SCCNS(=O)(=O)c2ccc(Cl)cc2)cc1F` [Compound No. 68, 2.6-Difluoro-4-[2-(4-chlorophenylsulfonylamino)ethylthio]phenoxyacetic acid], the IC50 in assay [1] (setting [2]) was 300 nM. Also, in the assay with thrombocytopenia, the “Activity (inhibition ratio of the thrombocytopenia)” value is reported as “+++ (More than 50% inhibition at a dose of 0.1 mg/kg)”.
With `Cc1ccc(S(=O)(=O)NCCSc2cc(F)c(OCC(=O)O)c(F)c2)cc1` [Compound No. 69, 2,6-Difluoro-4-[2-(4-methylphenylsulfonylamino)ethylthio]phenoxyacetic acid], the IC50 in assay [1] (setting [2]) turned out to be 540 nM. The “Activity (inhibition ratio of the thrombocytopenia)” value in the assay with thrombocytopenia is given as “++ (More than 50% inhibition at a dose of 0.3 mg/kg)”.
In the same order, the values of `O=C(O)COc1ccc(SCCNS(=O)(=O)c2ccc(Cl)cc2)cc1F` [Compound No. 71, 2-Fluoro-4-[2-(4-chlorophenylsulfonylamino)ethylthio]phenoxyacetic acid] are 1500 nM and “+ (More than 50% inhibition at a dose of 1.0 mg/kg)”.
As for `O=C(O)COc1ccc(SCCNS(=O)(=O)c2ccc(Cl)cc2)cc1` [Compound No. 74, 4-[2-(4-Chlorophenylsulfonylamino)ethylthio]phenoxyacetic acid], in assay [1] (setting [2]), the IC50 worked out at 4500 nM.
For the compound `O=C(O)COc1ccc(SCCNS(=O)(=O)c2ccc(Br)cc2)cc1` [Compound No. 78, 4-[2-(4-Bromophenylsulfonylamino)ethylthio]phenoxyacetic acid], in assay [1] (setting [2]), the IC50 is 5200 nM.
In the case of `O=C(O)Cc1ccc(SCCNS(=O)(=O)c2ccc(Cl)cc2)cc1` [Compound No. 93, 4-[2-(4-Chlorophenylsulfonylamino)ethylthio]phenylacetic acid], in assay [1] (setting [2]), the IC50 came out at 1500 nM. Further, the “Activity (inhibition ratio of the thrombocytopenia)” value in the assay on thrombocytopenia was “+ (More than 50% inhibition at a dose of 1.0 mg/kg)”.
On to `O=C(O)CCc1ccc(SCCNS(=O)(=O)c2ccc([N+](=O)[O-])cc2)cc1` [Compound No. 103, 3-{4-[2-(4-Nitrophenylsulfonylamino)ethylthio]phenyl}propionic acid], for which, in assay [1] (setting [2]), the IC50 is 1500 nM.
For the compound `O=C(O)COc1ccc(SCCNS(=O)(=O)c2ccc(F)cc2)cc1F` [Compound No. 105, 2-Fluoro-4-[2-(4-fluorophenylsulfonylamino)ethylthio]phenoxyacetic acid], the IC50 in assay [1] (setting [2]) was 4500 nM.
Same read-out and setting: the value for `O=C(O)COc1ccc(SCCNS(=O)(=O)c2ccc(Br)cc2)cc1F` [Compound No. 106, 2-Fluoro-4-[2-(4-bromophenylsulfonylamino)ethylthio]phenoxyacetic acid] was 2000 nM.
Still for that read-out and setting: the value for `COc1ccc(S(=O)(=O)NCCSc2ccc(OCC(=O)O)c(F)c2)cc1` [Compound No. 107, 2-Fluoro-4-[2-(4-methoxyphenylsulfonylamino)ethylthio]phenoxyacetic acid] was 7400 nM.
The same measure, in the same setting: the value for `O=C(O)Cc1ccc(SCCNS(=O)(=O)c2ccc(F)cc2)cc1` [Compound No. 112, 4-[2-(4-Fluorophenylsulfonylamino)ethylthio]phenylacetic acid] was 630 nM; that for `O=C(O)Cc1ccc(SCCNS(=O)(=O)c2ccc(Br)cc2)cc1` [Compound No. 113, 4-[2-(4-Bromophenylsulfonylamino)ethylthio]phenylacetic acid] was 300 nM.
`COc1ccc(S(=O)(=O)NCCSc2ccc(CC(=O)O)cc2)cc1` [Compound No. 114, 4-[2-(4-Methoxyphenylsulfonylamino)ethylthio]phenylacetic acid]: the IC50 in assay [1] (setting [2]) is 920 nM.
As for `O=C(O)Cc1ccc(SCCNS(=O)(=O)c2ccc([N+](=O)[O-])cc2)cc1` [Compound No. 115, 4-[2-(4-Nitrophenylsulfonylamino)ethylthio]phenylacetic acid], the IC50 in assay [1] (setting [2]) worked out at 930 nM.
As for `O=C(O)COc1c(F)cc(SCCNS(=O)(=O)c2ccc(F)cc2)cc1F` [Compound No. 119, 2,6-Difluoro-4-[2-(4-fluorophenylsulfonylamino)ethylthio]phenoxyacetic acid], the IC50 in assay [1] (setting [2]) is 580 nM.
On to `O=C(O)COc1c(F)cc(SCCNS(=O)(=O)c2ccc(Br)cc2)cc1F` [Compound No. 120, 2,6-Difluoro-4-[2-(4-bromophenylsulfonylamino)ethylthio]phenoxyacetic acid], for which the IC50 in assay [1] (setting [2]) was determined as 330 nM.
Take `O=C(O)COc1c(F)cc(SCCNS(=O)(=O)c2ccc([N+](=O)[O-])cc2)cc1F` [Compound No. 121, 2,6-Difluoro-4-[2-(4-nitrophenylsulfonylamino)ethylthio]phenoxyacetic acid]: the IC50 in assay [1] (setting [2]) came out at 750 nM.
Consider `COc1ccc(S(=O)(=O)NCCSc2cc(F)c(OCC(=O)O)c(F)c2)cc1` [Compound No. 125, 2,6-Difluoro-4-[2-(4-methoxyphenylsulfonylamino)ethylthio]phenoxyacetic acid], for which, in assay [1] (setting [2]), the IC50 came to 670 nM.
